Assay results taken from ChEMBL document CHEMBL1201862, “PubChem BioAssay data set” (2004).
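Cultured in 96-well plates, cells were exposed to test compound for 48 hours across five concentrations. GI50 = concentration required for 50% inhibition of growth.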 Activity calls are given as the source filed them. Cut-off read from the data, not from the text of the source: active = GI50 up to about 1.1 µM and inactive = higher.

What was measured:
Experiment in all cases: NCI tumour cell line growth inhibition, 48 h
SF-295 = tested on: SF-295
COLO 205 = tested on: COLO 205
UACC-62 = tested on: UACC-62
MOLT-4 = tested on: MOLT-4
OVCAR-3 = tested on: OVCAR-3
SF-268 = tested on: SF-268
CCRF-CEM = tested on: CCRF-CEM
OVCAR-8 = tested on: OVCAR-8
NCI-H460 = tested on: NCI-H460
A549 = tested on: A549
SK-MEL-28 = tested on: SK-MEL-28
UACC-257 = tested on: UACC-257
SN12C = tested on: SN12C
RPMI-8226 = tested on: RPMI-8226
LOX IMVI = tested on: LOX IMVI
NCI/ADR-RES = tested on: NCI/ADR-RES
HL-60 = tested on: HL-60
MDA-MB-435 = tested on: MDA-MB-435
SK-MEL-2 = tested on: SK-MEL-2
MDA-N = tested on: MDA-N
HCC 2998 = tested on: HCC 2998
HCT-116 = tested on: HCT-116
OVCAR-5 = tested on: OVCAR-5
MDA-MB-231 = tested on: MDA-MB-231
CAKI-1 = tested on: CAKI-1
NCI-H23 = tested on: NCI-H23
SK-OV-3 = tested on: SK-OV-3
U-251 = tested on: U-251
BT-549 = tested on: BT-549
SK-MEL-5 = tested on: SK-MEL-5
DU-145 = tested on: DU-145
PC-3 = tested on: PC-3
HOP-92 = tested on: HOP-92
IGROV-1 = tested on: IGROV-1
KM12 = tested on: KM12
K562 = tested on: K562
RXF 393 = tested on: RXF 393
SR = tested on: SR
EKVX = tested on: EKVX
A498 = tested on: A498
UO-31 = tested on: UO-31
786-0 = tested on: 786-0
HT-29 = tested on: HT-29
SNB-19 = tested on: SNB-19
NCI-H522 = tested on: NCI-H522
OVCAR-4 = tested on: OVCAR-4
M14 = tested on: M14
Malme-3M = tested on: Malme-3M
SF-539 = tested on: SF-539
HCT-15 = tested on: HCT-15
NCI-H226 = tested on: NCI-H226
TK-10 = tested on: TK-10
ACHN = tested on: ACHN
Hs-578T = tested on: Hs-578T
MCF7 = tested on: MCF7
T47D = tested on: T47D
SNB-75 = tested on: SNB-75
SW-620 = tested on: SW-620
HOP-62 = tested on: HOP-62

With `CCC(CC)C(=O)OC[n+]1cccc(-c2c(COC(=O)NC(C)C)c(COC(=O)NC(C)C)c3n2CCC3)c1` the GI50 (SF-295) was > 100 µM (inactive), the GI50 (COLO 205) was > 100 µM (inactive) and the GI50 (UACC-62) was 46.6 µM (inactive). The GI50 (MOLT-4) was 33.3 µM (inactive), the GI50 (OVCAR-3) was > 100 µM (inactive) and the GI50 (SF-268) was 62.8 µM (inactive). For the same compound, the GI50 (CCRF-CEM) was 38.4 µM (inactive), the GI50 (OVCAR-8) was > 100 µM (inactive) and the GI50 (NCI-H460) was 45.8 µM (inactive). The GI50 (A549) was > 100 µM (inactive), the GI50 (SK-MEL-28) was > 100 µM (inactive) and the GI50 (UACC-257) was > 100 µM (inactive). The GI50 (SN12C) was 58.2 µM (inactive), the GI50 (RPMI-8226) was > 100 µM (inactive) and the GI50 (LOX IMVI) was > 100 µM (inactive). The GI50 (NCI/ADR-RES) was 63.2 µM (inactive), the GI50 (HL-60) was 33.1 µM (inactive) and the GI50 (MDA-MB-435) was > 100 µM (inactive). The GI50 (SK-MEL-2) was > 100 µM (inactive), the GI50 (MDA-N) was > 100 µM (inactive) and the GI50 (HCC 2998) was > 100 µM (inactive). The GI50 (HCT-116) was > 100 µM (inactive), the GI50 (OVCAR-5) was > 100 µM (inactive) and the GI50 (MDA-MB-231) was > 100 µM (inactive). For the same compound, the GI50 (CAKI-1) was 49.4 µM (inactive), the GI50 (NCI-H23) was 61.1 µM (inactive) and the GI50 (SK-OV-3) was > 100 µM (inactive). The GI50 (U-251) was > 100 µM (inactive), the GI50 (BT-549) was > 100 µM (inactive) and the GI50 (SK-MEL-5) was > 100 µM (inactive). For the same compound, the GI50 (DU-145) was > 100 µM (inactive), the GI50 (PC-3) was > 100 µM (inactive) and the GI50 (HOP-92) was 72.3 µM (inactive). For the same compound, the GI50 (IGROV-1) was > 100 µM (inactive), the GI50 (KM12) was > 100 µM (inactive) and the GI50 (K562) was 97.5 µM (inactive). The GI50 (RXF 393) was 61.4 µM (inactive), the GI50 (SR) was 5.87 µM (inactive) and the GI50 (EKVX) was > 100 µM (inactive). The GI50 (A498) was > 100 µM (inactive), the GI50 (UO-31) was > 100 µM (inactive) and the GI50 (786-0) was 50 µM (inactive). The GI50 (HT-29) was > 100 µM (inactive), the GI50 (SNB-19) was > 100 µM (inactive) and the GI50 (NCI-H522) was 56.2 µM (inactive). For the same compound, the GI50 (OVCAR-4) was > 100 µM (inactive), the GI50 (M14) was 56.9 µM (inactive) and the GI50 (Malme-3M) was > 100 µM (inactive). The GI50 (SF-539) was 68.7 µM (inactive), the GI50 (HCT-15) was greater than 100 µM and the GI50 (NCI-H226) was > 100 µM (inactive). For the same compound, the GI50 (TK-10) was > 100 µM (inactive), the GI50 (ACHN) was 40.8 µM (inactive) and the GI50 (Hs-578T) was 50.7 µM (inactive). For the same compound, the GI50 (MCF7) was 64.9 µM (inactive), the GI50 (T47D) was > 100 µM (inactive) and the GI50 (SNB-75) was > 100 µM (inactive). For the same compound, the GI50 (SW-620) was > 100 µM (inactive) and the GI50 (HOP-62) was 43.4 µM (inactive).

For `Cc1cc(=O)n2c3c(c4c(cc13)c(CN(C)C)cc(=O)n4C)OC2`, the GI50 (SF-295) was 16.9 µM (inactive), the GI50 (COLO 205) was 11.7 µM (inactive) and the GI50 (UACC-62) was 12.6 µM (inactive). For the same compound, the GI50 (MOLT-4) was 7.48 µM (inactive), the GI50 (OVCAR-3) was 18.6 µM (inactive) and the GI50 (SF-268) was 15.5 µM (inactive). For the same compound, the GI50 (CCRF-CEM) was > 24.8 µM (inactive), the GI50 (OVCAR-8) was 9.1 µM (inactive) and the GI50 (NCI-H460) was 4.46 µM (inactive). For the same compound, the GI50 (A549) was 10 µM (inactive), the GI50 (SK-MEL-28) was 31.8 µM (inactive) and the GI50 (UACC-257) was 21.9 µM (inactive). For the same compound, the GI50 (SN12C) was 20.3 µM (inactive), the GI50 (RPMI-8226) was 25.2 µM (inactive) and the GI50 (LOX IMVI) was 13.2 µM (inactive). For the same compound, the GI50 (NCI/ADR-RES) was 15 µM (inactive), the GI50 (HL-60) was 22.2 µM (inactive) and the GI50 (MDA-MB-435) was 20.9 µM (inactive). The GI50 (SK-MEL-2) was 20.3 µM (inactive), the GI50 (MDA-N) was 27.8 µM (inactive) and the GI50 (HCC 2998) was 6.93 µM (inactive). For the same compound, the GI50 (HCT-116) was 5.2 µM (inactive), the GI50 (OVCAR-5) was 37.9 µM (inactive) and the GI50 (MDA-MB-231) was 33.3 µM (inactive). The GI50 (CAKI-1) was 13.1 µM (inactive), the GI50 (NCI-H23) was 14 µM (inactive) and the GI50 (SK-OV-3) was 26.8 µM (inactive). The GI50 (U-251) was 32.4 µM (inactive), the GI50 (BT-549) was 22 µM (inactive) and the GI50 (SK-MEL-5) was 12.2 µM (inactive). For the same compound, the GI50 (DU-145) was 20 µM (inactive), the GI50 (PC-3) was 19.9 µM (inactive) and the GI50 (HOP-92) was 28.5 µM (inactive). For the same compound, the GI50 (IGROV-1) was 9.51 µM (inactive), the GI50 (KM12) was 14.7 µM (inactive) and the GI50 (K562) was 29.8 µM (inactive). For the same compound, the GI50 (RXF 393) was 6.56 µM (inactive), the GI50 (SR) was > 25.6 µM (inactive) and the GI50 (EKVX) was 20.6 µM (inactive). The GI50 (A498) was 38.2 µM (inactive), the GI50 (UO-31) was 8.04 µM (inactive) and the GI50 (786-0) was 15.9 µM (inactive). For the same compound, the GI50 (HT-29) was 8.13 µM (inactive), the GI50 (SNB-19) was 15.8 µM (inactive) and the GI50 (NCI-H522) was 0.9 µM (active). The GI50 (OVCAR-4) was 9.27 µM (inactive), the GI50 (M14) was 15.6 µM (inactive) and the GI50 (Malme-3M) was 12.4 µM (inactive). The GI50 (SF-539) was 7.18 µM (inactive), the GI50 (HCT-15) was 6.15 µM and the GI50 (NCI-H226) was 9.04 µM (inactive). The GI50 (TK-10) was 19.6 µM (inactive), the GI50 (ACHN) was 4.97 µM (inactive) and the GI50 (Hs-578T) was 12.4 µM (inactive). The GI50 (MCF7) was 6.47 µM (inactive), the GI50 (T47D) was 38.5 µM (inactive) and the GI50 (SNB-75) was 14.7 µM (inactive). For the same compound, the GI50 (SW-620) was 9.98 µM (inactive) and the GI50 (HOP-62) was 15.2 µM (inactive).
